Results published in patent US7144901B2, “Oxadiazole derivatives and drugs containing these derivatives as the active ingredient” (ONO Pharmaceutical Co.,Ltd., priority 1999, dated 2006).
Each block holds one molecule with its values, some of them ahead of it.

Columns and labels:
Format in all cases: biochemical
[1] = target: T1, cathepsin K (Homo sapiens, UniProt P43235); experiment: Measurement of cathepsin K inhibitory activity; settings: Dixon plot, fluorogenic substrate, pH 5.5, 37° C.
T1 sequence (P43235 115-329): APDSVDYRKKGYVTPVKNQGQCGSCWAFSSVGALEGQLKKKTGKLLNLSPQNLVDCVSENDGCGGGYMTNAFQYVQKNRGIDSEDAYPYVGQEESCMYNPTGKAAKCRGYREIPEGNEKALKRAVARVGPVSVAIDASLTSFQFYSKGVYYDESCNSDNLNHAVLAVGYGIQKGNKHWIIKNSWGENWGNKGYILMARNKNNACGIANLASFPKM
Experimental: (i) Measurement of Cathepsin K Inhibitory Activity
65 μL of Cathepsin K enzyme reaction buffer (50 mmol/L of 2-(N-morpholino)ethanesulfonate, 2 mmol/L of ethylenediamine tetraacetate (EDTA) and 4 mmol/L of dithiothreitol (DTT) were mixed to adjust to pH 5.5), 5 μL of cysteine protease inhibitor solution of several concentrations, 20 μL of synthesized substrate (t-butyloxycarbonyl-L-alanyl-glycyl-L-prolyl-L-arginine-4-methyl-chromanyl-7-amide) solution of several concentrations and 10 μL of cathepsin K enzyme solution were mixed and the increase of fluorescence intensity when reacted at 37° C. was measured (λex (excitation wavelength)=355 nm, λem (fluorescence wavelength)=460 nm). As to the substrate and the compound of the present invention, enzyme reactions were carried out in combination of several appropriate concentrations and Dixon plotting was prepared, to define the absolute value of X-coordinate of the intersection point of the graph as Ki value.

[2] = target: cathepsin L (Homo sapiens, UniProt P07711); experiment: Measurement of cathepsin L inhibitory activity
Sequence of cathepsin L (P07711 114-333, species assumed): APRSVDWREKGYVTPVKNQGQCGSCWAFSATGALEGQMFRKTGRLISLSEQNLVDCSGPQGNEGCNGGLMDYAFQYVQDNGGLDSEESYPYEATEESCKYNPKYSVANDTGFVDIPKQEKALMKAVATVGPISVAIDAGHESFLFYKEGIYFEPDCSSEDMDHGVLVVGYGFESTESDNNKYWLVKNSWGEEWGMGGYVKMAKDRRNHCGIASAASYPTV
Experimental: (iv) Measurement of Cathepsin L Inhibitory Activity
5 μL of Synthesized substrate (carbobenzoxy-L-phenylalanyl-L-arguine-4-methyl-chromanyl-7-amide or L-prolyl-L-phenylalanyl-L-arguinine-4-methyl-chromanyl-7-amide) solution and 5 μL of cysteine protease inhibitor solution of several concentrations, 80 μL of cathepsin L enzyme reaction buffer (400 mmol/L acetic acid, 4 mmol/L EDTA, 8 mmol/L DTT were mixed to adjust to pH 5.5) and 10 μL of cathepsin L enzyme solution were mixed and the increase of fluorescence intensity was measured (λex (excitation wavelength)=355 nm, λem (fluorescence wavelength)=460 nm) when reacted at 37° C.

[3] = target: cathepsin S (Homo sapiens, UniProt P25774); experiment: Measurement of cathepsin S inhibitory activity
Sequence of cathepsin S (P25774 115-331, species assumed): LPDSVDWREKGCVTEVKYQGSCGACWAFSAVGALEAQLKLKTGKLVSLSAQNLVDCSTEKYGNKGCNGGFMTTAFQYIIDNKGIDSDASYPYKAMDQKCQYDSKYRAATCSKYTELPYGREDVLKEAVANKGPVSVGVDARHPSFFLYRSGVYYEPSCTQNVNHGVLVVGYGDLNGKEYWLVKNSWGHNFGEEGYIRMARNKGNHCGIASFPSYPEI
Experimental: (iii) Measurement of Cathepsin S Inhibitory Activity
10 μL of synthesized substrate (carbobenzoxy-L-leucyl-L-leucyl-L-arguinine-4-methyl-chromanyl-7-amide) solution and 5 μL of cysteine protease inhibitor solution of several concentrations, 75 μL of cathepsin S enzyme reaction buffer (100 mmol/L of sodium phosphate, 2 mmol/L of EDTA, 2 mmol/L of DTT were mixed to adjust to pH 6.5) and 10 μL of cathepsin S enzyme solution were mixed and the increase of fluorescence intensity was measured (λex (excitation wavelength)=355 nm, λem (fluorescence wavelength)=460 nm) when reacted at 37° C.

[4] = target: cathepsin B (Homo sapiens, UniProt P07858); experiment: Measurement of cathepsin B inhibitory activity
Experimental: (ii) Measurement of Cathepsin B Inhibitory Activity
10 μL of Synthesized substrate (carbobenzoxy-L-arginyl-L-arginine-4-methyl-chromanyl-7-amide or carbobenzoxy-L-phenylalanyl-L-arginine-4-methyl-chromanyl-7-amide) solution of several concentrations, 10 μL of cysteine protease inhibitor solution of several concentrations, 70 μL of cathepsin B enzyme reaction buffer (mixture of 400 mmol/L in acetic acid, 4 mmol/L EDTA, 8 mmol/L DDT to adjust to pH 5.5) and 10 μL of cathepsin B enzyme solution were mixed and the increase of fluorescence intensity was measured (λex (excitation wavelength)=355 nm, λem (fluorescence wavelength)=460 nm) when reacted at 37° C.

- Ki [1]: 1.3 nM
SMILES: CC(C)C[C@H](NC(=O)OCc1ccccc1)C(=O)N[C@@H](CC(C)C)C(=O)c1nnc(SC(C)C)o1 [example 3]

- inhibition at 1 µM [2]: 92%
SMILES: CC(C)C[C@H](NC(=O)OCc1ccccc1)C(=O)N[C@@H](CC(C)C)C(=O)c1nn(CC2CCC2)c(=O)o1 [1 (21), (2S)-N-[(2S)-1-(3-cyclobutylmethyl-2-oxo-1,3,4-oxadiazolin-5-yl)-4-methyl-1-oxo-2-pentyl]-2-benzyloxycarbonylamino-4-methylpentanamide]

- inhibition at 1 µM [3]: 100%
SMILES: CSc1nnc(C(=O)[C@H](CCc2ccccc2)NC(=O)[C@@H]2CCCC[C@@H]2NC(=O)c2ccccc2)o1 [3 (7), 1-[(1R,2S)-2-benzoylaminocyclohexyl]-N-[(2S)-1-(5-methylthio-1,3,4-oxadiazol-2-yl)-1-oxo-4-phenyl-2-butyl]carboxamide]

- inhibition at 1 µM [4]: 100%
SMILES: CC(C)C[C@H](NC(=O)[C@@H]1CCCC[C@@H]1NC(=O)c1ccccc1)C(=O)c1nnc(SCc2ccccc2)o1 [3 (5), 1-[(1R,2S)-2-benzoylaminocyclohexyl]-N-[(2S)-1-(5-benzylthio-1,3,4-oxadiazol-2-yl)-4-methyl-1-oxo-2-pentyl]carboxamide]
